# Measured values from patent publication US5932709A (University of Michigan, priority 1997, dated 1999).
# System: human prostate tumor xenograft
# Assay: Human prostate tumor xenograft model
# Assay type: in vivo, human tumor in nude mice
# From the text: For the human lung and prostate tumor xenograft models the following procedure was used. Nude mice were implanted s.c. by trocar with fragments of human lung or prostate carcinomas harvested from s.c. growing tumors in nude mice hosts. When tumors were approximately 5 mm×5 mm in size (usually ten to fourteen days after inoculation), the animals were pair-matched into treatment and control groups. Each group contained 10 tumored mice, each of which was ear-tagged and followed individually throughout the experiment. […] The doses, route of drug administration and schedule were selected as appropriate for the study in question. (See above protocol). […] Topotecan was run as a positive control at its MTD dose on a daily×5 and a daily×1 schedule. Male nude mice were used for both prostate studies.
# Mice are weighed twice weekly, and tumor measurements were taken by calipers twice weekly, starting on day 1.
# Some drugs cause tumor shrinkage in the human tumor xenograft models. […] A mean % tumor shrinkage can be calculated from the data from the mice in a group that experienced tumor regressions.
smiles,measurement,setting,value
"CC[C@@]1(O)C(=O)OCc2c1cc1n(c2=O)Cc2c-1nc1ccccc1c2CO[C@@H]1C=C[C@H](O)[C@@H](CO)O1 [HAR7, 7-[2,3-dideoxy-α-D-erythro-hex-2-enopyranosyl]-oxymethylcamptothecin]",Deaths,30 mg/kg × 5 days,0/10
same,Shrink (number of animals),30 mg/kg × 5 days,0/10
same,TGI (% Tumor Growth Inhibition Rate),30 mg/kg × 5 days,77%
same,TGI (number of animals),30 mg/kg × 5 days,10/10
same,Deaths,100 mg single ds,0/10
same,Shrink (% Tumor Shrinkage Rate),100 mg single ds,20%
same,Shrink (number of animals),100 mg single ds,1/10
same,TGI (% Tumor Growth Inhibition Rate),100 mg single ds,51%
same,TGI (number of animals),100 mg single ds,9/10
same,Deaths,200 mg single ds,0/10
same,Shrink (number of animals),200 mg single ds,0/10
same,TGI (% Tumor Growth Inhibition Rate),200 mg single ds,80%
same,TGI (number of animals),200 mg single ds,10/10
same,activity against prostate xenograft model,in words,outstanding activity
same,"efficacy, single dose","single dose, in words",significant tumor growth inhibition
